Results reported in patent US10239851B2 (priority 2014, dated 2019).

Columns and labels:
[1] = Solubility of the water soluble taxane derivatives in physiological saline; format: physicochemical
[2] = In vitro dissociation of the water soluble taxane derivatives in blood plasma of rat; format: in vitro ADME, SD rats; conditions: 37° C.
Procedure: The obtained water soluble taxane derivatives were formulated as 0.2 mg/ml aqueous solutions. […] After 2 min, 5 min and 10 min of incubation, 0.2 ml of solutions were respectively taken from each of the samples, and added to acetonitrile (0.4 ml) cooled to −20° C. for precipitation of protein.

[3] = in vivo; conditions: male, SD, rat, iv, 5 mg/kg
Procedure: After 5 min of administration, 0.3 ml of venous blood was taken from the retrobulbar venous plexus of the rats, placed in heparinized tubes, and centrifuged at 11,000 rpm for 5 min. Plasma was separated, and the concentrations of the compounds in the plasma were determined by liquid chromatography □-mass spectrometry.

[4] = test system: human prostate cancer PC-3; conditions: 14 mg/kg;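 also: human prostate cancer PC-3 cells implanted under the skin of nude mice to form the xenograft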
From the text: Test of the inhibitory activity of the water soluble docetaxel derivatives on subcutaneously xenografted tumor of human prostate cancer PC-3 in nude mice: evaluating and comparing the inhibitory activity of the water soluble docetaxel derivatives and docetaxel on subcutaneously xenografted tumor of human prostate cancer PC-3 in nude mice.
Human prostate cancer PC-3 cells were subcutaneously inoculated into nude mice. After the tumor volume reached 100-150 mm^3, the animals were randomly divided into several groups, and administered with the water soluble docetaxel derivatives of the present invention and docetaxel, respectively once on the same day (D0). The tumor volume was measured 2-3 times per week, the animals were weighed and the data were recorded until day 20 (D20) after grouping.
(§1) The tumor volume (V) was calculated according to the equation: V=½×a×b^2, wherein a and b represent the length and the width, respectively.
(§2) T/C (%)=(T−T0)/(C−C0)×100, wherein T and C represent the tumor volume at the end of the experiment; and T0 and C0 represent the tumor volume at the beginning of the experiment.

[5] = test system: human ovarian cancer SK-OV-3
From the text: Test of the inhibitory activity of the water soluble paclitaxel derivatives on subcutaneously xenografted tumor of human ovarian cancer SK-OV-3 in nude mice: evaluating and comparing the inhibitory activity of the water soluble paclitaxel derivatives of the present invention, paclitaxel and Abraxane® on subcutaneously xenografted tumor of human ovarian cancer SK-OV-3 in nude mice.
Human ovarian cancer SK-OV-3 cells were subcutaneously inoculated to nude mice. After the tumor volume reached 100-150 mm^3, the animals were randomly divided into groups (D0), and administered with the water soluble paclitaxel derivatives of the present invention, paclitaxel, and Abraxane®, respectively once per day for 5 days. The tumor volume was measured 2-3 times per week, the animals were weighed and the data were recorded until day 22 (D22) after grouping.
as §1, §2

[6] = in vivo; conditions: male, SD, rat, iv, 5 mg/kg; remark: listed apart in the source
Procedure: After 5 min of administration, 0.3 ml of venous blood was taken from the retrobulbar venous plexus of the rats, placed in heparinized tubes, and centrifuged at 11,000 rpm for 5 min. Blood plasma was separated, and the concentrations of the compounds in the blood plasma were determined by liquid chromatography-mass spectrometry.

[7] = LD50 of the carboxylic acid derivative in mice via the caudal vein; conditions: mouse, in vivo, intravenous, solution in physiological saline pH 7.4
From the text: In addition, the inventors dissolved the compound of the present invention having the following formula in physiological saline, adjusted the pH of the solution to 7.4, and administered the solution to mice through the caudal vein.

[8] = PC-3 xenograft, nude mice, D0 IV, single dose, D20
[9] = D22, 24 mg/kg (paclitaxel 16 mg/kg) D0-4 IV

For `CC(=O)O[C@H]1C(=O)[C@@]2(C)[C@H]([C@H](OC(=O)c3ccccc3)[C@]3(O)C[C@H](OC(=O)[C@H](OC(=O)C(F)(CCCCCCN(C)C4CCCC4)C(F)(F)F)[C@@H](NC(=O)c4ccccc4)c4ccccc4)C(C)=C1C3(C)C)[C@]1(OC(C)=O)CO[C@@H]1C[C@@H]2O.CS(=O)(=O)O` (stereo partly drawn) [Compound 15, 2′-O-[8-(N-methyl-N-cyclopentyl)amino-2(R,S)-2-trifluoromethyl-2-fluorooctanoyl]paclitaxel methanesulfonate], the Solubility [1] was 15.0 mg/mL, the dissociation percent ([2]; 2 min) was 35.0% and the dissociation percent ([2]; 5 min) was 46.2%. The dissociation percent ([2]; 10 min) was 57.9%.
With `CC(=O)O[C@@]12CO[C@@H]1C[C@H](O)[C@@]1(C)C(=O)[C@H](O)C3=C(C)[C@@H](OC(=O)[C@H](OC(=O)C(F)(F)CCCCCN4CC4)[C@@H](NC(=O)OC(C)(C)C)c4ccccc4)C[C@@](O)([C@@H](OC(=O)c4ccccc4)[C@H]21)C3(C)C.CS(=O)(=O)O` [Compound 14, 2′-O-[7-N-(aziridin-1-yl)-2,2-difluoroheptanoyl]docetaxel methanesulfonate] the Solubility [1] was 14.3 mg/mL, the dissociation percent ([2]; 2 min) was 42.1% and the dissociation percent ([2]; 5 min) was 55.7%. It also gave a dissociation percent ([2]; 10 min) of 72.5%.
With `CC(=O)O[C@@]12CO[C@@H]1C[C@H](O)[C@@]1(C)C(=O)[C@H](O)C3=C(C)[C@@H](OC(=O)[C@H](O)[C@@H](NC(=O)OC(C)(C)C)c4ccccc4)C[C@@](O)([C@@H](OC(=O)c4ccccc4)[C@H]21)C3(C)C` [docetaxel, reference compound] the concentration at 5 min [3] was 769 ng/mL, the “Tumor volume (mm^3) (D0)” value ([4]; PC-3 xenograft, nude mice, D0 IV, single dose, D0 (baseline at grouping)) was 111.5 ± 1.3 mm^3 and the “T/C (%) D20” value [4, 8] was −27%. The “Tumor volume (mm^3) (D20)” value [4, 8] was 81.4 ± 25.1 mm^3, the “Tumor inhibitory percent (%) D20” value ([4]; PC-3 xenograft, nude mice, D0 IV, single dose, D20, P(D20)=0.000 vs control) was 127% and the “Weight change (%) D6” value ([4]; mouse, in vivo, iv) was −12.3%.
With `CC(=O)O[C@H]1C(=O)[C@@]2(C)[C@H]([C@H](OC(=O)c3ccccc3)[C@]3(O)C[C@H](OC(=O)[C@H](O)[C@@H](NC(=O)c4ccccc4)c4ccccc4)C(C)=C1C3(C)C)[C@]1(OC(C)=O)CO[C@@H]1C[C@@H]2O` [paclitaxel, reference compound] the “Tumor volume (D0)” value ([5]; D0, at grouping, 24 mg/kg (paclitaxel 16 mg/kg) D0-4 IV) was 134.6 ± 19.7 mm^3, the “T/C (%) D22” value [5, 9] was −60% and the “Tumor volume (D22)” value [5, 9] was 53.7 ± 11.2 mm^3. The “Tumor inhibitory percent (%) D22” value ([5]; D22, 24 mg/kg (paclitaxel 16 mg/kg) D0-4 IV, P=0.000 compared to the control) was 160%, the “Weight change (%) D4” value ([5]; mouse, in vivo) was −4.8% and the concentration at 5 min [6] was 1790 ng/mL.
With `CN(C)CC[C@@H](F)C(=O)O.Cl` the LD50 [7] was > 1500 mg/kg.
